In patent US9145411B2, “Substituted amino-pyrimidine derivatives” (Asana Biosciences, LLC, priority 2012, dated 2015):

Tests used:
PI3Kα (wild-type) = molecular target: T1, PI3Kα (wild-type) (Homo sapiens, UniProt P42336); experiment: PI3 Kinase TR-FRET assay, PI3Kα (wild-type); type: biochemical; conditions: wild-type P110/P85α, 10 μM ATP
T1 construct: made in house; host or cells: SF9 insect cells
Method in brief: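 Sf9-expressed, Ni-purified p110/p85α (5 ng) with PIP2 was preincubated with compound for 60 min at room temperature in buffer with 40 mM MgCl2 and 5 mM DTT. The reaction ran 30 min at room temperature with 10 μM PIP2 and 10 μM ATP. The TR-FRET 665/615 nm ratio was used to derive IC50 from dose-response curves.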

pAkt(T308) = experiment: In-cell Western assay, pAkt(T308), PC3 cells; type: cell-based; conditions: Homo sapiens, PC-3, 2 hours incubation
Experimental: (§1) Cells from human prostate cancer cell line PC3 (American Type Culture Collection (ATCC), Manassas, Va. 20108 USA) were seeded at an optimal density of 22,000 cell/well in 96-well plates containing Ham's F12K medium (90 μL) and incubated overnight. The compound dilutions were carried out in 100% DMSO followed by a dilution in the medium. Test compounds were added in serial dilutions to the wells and incubated for 2 hours. The cells were washed and fixed with 4% paraformaldehyde. After incubation at room temperature for 1 hour in the dark, blocking was done for 2 hours at room temperature. Primary antibodies for pAkt(S473) ([…] phosphorylated at serine 473), pAkt(T308) (Akt phosphorylated at threonine 308) and for pS6RP (S235/236) (phosphorylated at serine 235/236) (commercially available from Cell Signaling Technology®, whose protocol was followed for the in-cell western assay, were diluted to the required concentration and added to the corresponding wells followed by overnight incubation at 4° C. Eu-labeled rabbit (PE) (Perkin-Elmer USA catalog #AD0106) secondary antibody was added and incubated for 2 hours at room temperature. Delfia® enhancement solution (cat #1244-105, Perkin Elmer USA) was subsequently added to the plate before taking the reading at 615 nm with excitation wavelength of 340 nm, after which 0.5 μg/mL of Hoechst® 33258 dye (Catalog #86140-5, Sigma) was added to the plate and fluorescence emission was read at 460 nm with 355 nm excitation, to evaluate the correction factor. IC50 values were calculated using a sigmoidal dose-response curve fit in GraphPad Prism® v5 software.

pS6RP (S235/236) = experiment: In-cell Western assay, pS6RP (S235/236), PC3 cells; type: cell-based; conditions: Homo sapiens, PC-3, 2 hours incubation
Experimental: as §1

PC3 cells = experiment: XTT assay for cell viability, PC3 cells; type: cell-based; conditions: Homo sapiens, PC-3; PC3 cell proliferation, 96 hours
Method in brief: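 Log-phase PC3 cells (1000/well) were seeded for 24 h, then exposed to serially diluted compounds (DMSO dilutions) for 96 h. Viability was measured by XTT dye conversion at 37 °C, with absorbance read at 465 nm. EC50 was obtained from a sigmoidal dose-response fit.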

mTOR kinase = molecular target: T2, mTOR kinase (Homo sapiens, UniProt P42345); experiment: mTOR kinase TR-FRET assay; type: biochemical; conditions: 20 μM ATP
T2 construct: purchased Millipore, USA
T2 sequence (P42345 1362-2549 limits assumed): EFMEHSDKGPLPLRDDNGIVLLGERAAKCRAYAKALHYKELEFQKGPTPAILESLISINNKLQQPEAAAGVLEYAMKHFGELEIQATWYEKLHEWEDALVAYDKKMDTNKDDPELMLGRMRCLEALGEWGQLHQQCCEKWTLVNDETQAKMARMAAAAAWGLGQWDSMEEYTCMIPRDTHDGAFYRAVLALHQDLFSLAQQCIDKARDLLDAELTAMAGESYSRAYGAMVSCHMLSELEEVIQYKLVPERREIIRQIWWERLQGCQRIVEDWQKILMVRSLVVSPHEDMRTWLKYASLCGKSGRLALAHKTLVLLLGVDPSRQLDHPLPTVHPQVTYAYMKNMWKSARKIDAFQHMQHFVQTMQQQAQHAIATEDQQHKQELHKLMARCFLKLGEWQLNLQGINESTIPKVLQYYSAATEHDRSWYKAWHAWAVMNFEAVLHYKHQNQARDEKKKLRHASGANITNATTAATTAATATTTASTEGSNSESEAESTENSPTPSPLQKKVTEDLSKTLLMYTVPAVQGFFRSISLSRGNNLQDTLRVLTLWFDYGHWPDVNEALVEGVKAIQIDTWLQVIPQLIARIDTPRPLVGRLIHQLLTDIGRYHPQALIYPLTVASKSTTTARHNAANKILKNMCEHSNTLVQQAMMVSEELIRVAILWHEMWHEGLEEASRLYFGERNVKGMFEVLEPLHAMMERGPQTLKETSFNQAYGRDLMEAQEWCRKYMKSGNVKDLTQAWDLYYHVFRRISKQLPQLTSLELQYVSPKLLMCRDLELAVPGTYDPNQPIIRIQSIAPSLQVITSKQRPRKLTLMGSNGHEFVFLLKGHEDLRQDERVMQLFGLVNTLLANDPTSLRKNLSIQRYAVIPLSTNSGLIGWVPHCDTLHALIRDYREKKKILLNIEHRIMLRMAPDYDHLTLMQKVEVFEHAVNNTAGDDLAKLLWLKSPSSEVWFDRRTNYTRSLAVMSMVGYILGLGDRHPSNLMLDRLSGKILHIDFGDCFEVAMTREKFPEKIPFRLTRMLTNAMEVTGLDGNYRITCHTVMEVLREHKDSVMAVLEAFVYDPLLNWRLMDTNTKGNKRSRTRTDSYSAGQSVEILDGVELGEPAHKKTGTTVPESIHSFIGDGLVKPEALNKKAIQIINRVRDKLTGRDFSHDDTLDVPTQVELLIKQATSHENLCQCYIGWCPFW
Method in brief: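 Test compounds were pre-incubated 60 min with mTOR (5 ng), then ULight-p70 S6K (Thr389) peptide (50 nM) and ATP (20 μM) were added in HEPES 50 mM pH 7.5, EGTA, MnCl2 3 mM. After 60 min at room temperature, EDTA stop and Eu-anti-phospho antibody TR-FRET (665/615 nm) gave IC50 from sigmoidal variable-slope fits.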

pAkt(S473) = experiment: In-cell Western assay, pAkt(S473), PC3 cells; type: cell-based; conditions: Homo sapiens, PC-3, 2 hours incubation
Experimental: as §1

T1 sequence (P42336 whole entry, species assumed): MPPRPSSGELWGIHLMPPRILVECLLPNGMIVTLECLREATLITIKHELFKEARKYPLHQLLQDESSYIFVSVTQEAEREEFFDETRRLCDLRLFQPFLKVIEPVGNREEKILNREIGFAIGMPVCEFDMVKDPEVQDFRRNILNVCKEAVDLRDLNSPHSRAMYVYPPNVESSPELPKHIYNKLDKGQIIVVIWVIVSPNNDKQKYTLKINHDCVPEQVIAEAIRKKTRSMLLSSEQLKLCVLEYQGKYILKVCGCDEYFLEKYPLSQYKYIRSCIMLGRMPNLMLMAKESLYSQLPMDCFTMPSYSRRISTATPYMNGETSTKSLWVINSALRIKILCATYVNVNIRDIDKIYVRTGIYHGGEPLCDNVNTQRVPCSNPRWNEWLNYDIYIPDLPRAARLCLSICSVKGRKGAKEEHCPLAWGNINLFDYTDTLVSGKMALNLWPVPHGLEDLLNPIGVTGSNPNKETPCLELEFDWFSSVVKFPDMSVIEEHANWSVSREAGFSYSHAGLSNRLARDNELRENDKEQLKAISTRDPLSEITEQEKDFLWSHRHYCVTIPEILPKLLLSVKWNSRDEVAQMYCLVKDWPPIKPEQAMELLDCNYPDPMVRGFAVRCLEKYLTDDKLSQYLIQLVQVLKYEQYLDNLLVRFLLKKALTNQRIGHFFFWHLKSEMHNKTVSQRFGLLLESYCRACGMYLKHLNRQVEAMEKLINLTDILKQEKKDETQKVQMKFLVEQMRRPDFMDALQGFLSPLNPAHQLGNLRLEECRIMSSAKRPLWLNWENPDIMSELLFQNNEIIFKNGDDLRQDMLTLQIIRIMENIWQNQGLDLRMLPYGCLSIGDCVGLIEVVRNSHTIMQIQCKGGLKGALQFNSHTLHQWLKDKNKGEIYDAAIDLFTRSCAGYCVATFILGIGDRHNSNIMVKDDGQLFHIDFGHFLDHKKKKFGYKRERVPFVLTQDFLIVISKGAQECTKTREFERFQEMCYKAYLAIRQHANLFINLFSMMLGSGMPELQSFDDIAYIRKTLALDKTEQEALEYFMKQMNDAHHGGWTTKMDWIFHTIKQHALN
T1 sequence (P27986 whole entry partner, species assumed): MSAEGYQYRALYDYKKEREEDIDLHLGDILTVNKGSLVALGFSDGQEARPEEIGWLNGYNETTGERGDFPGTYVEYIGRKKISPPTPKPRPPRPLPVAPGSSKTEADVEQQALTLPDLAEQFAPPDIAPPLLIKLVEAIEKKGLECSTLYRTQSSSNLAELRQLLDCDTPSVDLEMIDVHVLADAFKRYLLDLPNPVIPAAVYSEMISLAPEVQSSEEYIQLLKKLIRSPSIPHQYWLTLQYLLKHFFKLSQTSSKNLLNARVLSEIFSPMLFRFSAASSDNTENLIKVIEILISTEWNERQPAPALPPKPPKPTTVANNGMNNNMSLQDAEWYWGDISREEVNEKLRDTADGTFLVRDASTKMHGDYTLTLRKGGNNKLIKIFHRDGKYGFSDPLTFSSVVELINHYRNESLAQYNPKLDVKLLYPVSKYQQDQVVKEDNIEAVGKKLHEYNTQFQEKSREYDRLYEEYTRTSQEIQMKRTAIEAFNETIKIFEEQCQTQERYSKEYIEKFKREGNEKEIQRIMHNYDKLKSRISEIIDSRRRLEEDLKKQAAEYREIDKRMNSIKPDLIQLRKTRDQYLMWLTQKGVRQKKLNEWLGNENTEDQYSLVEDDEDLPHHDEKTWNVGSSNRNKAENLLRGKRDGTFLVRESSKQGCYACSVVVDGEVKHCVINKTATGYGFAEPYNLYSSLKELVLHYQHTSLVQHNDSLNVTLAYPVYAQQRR

Structure (SMILES)	IC50 (PI3Kα (wild-type))	IC50 (pAkt(T308))	IC50 (pS6RP (S235/236))	IC50 (PC3 cells)	IC50 (mTOR kinase)	IC50 (pAkt(S473))
CS(=O)(=O)c1cccc(-c2ccc3c(N4CCOCC4)nc(-c4cnc(N)nc4)nc3c2)c1 [Example 1, 5-(7-(3-(Methylsulfonyl)phenyl)-4-morpholinoquinazolin-2-yl)pyrimidin-2-amine]	50 to 200 nM	501 to 5000 nM	100 to 500 nM	501 to 5000 nM	50 to 200 nM	100 to 500 nM
CN(C)CC(=O)Nc1cccc(-c2cnc3c(N4CCOCC4)nc(-c4cnc(N)nc4)nc3c2)c1 [Example 46, N-(3-(2-(2-amino-pyrimidin-5-yl)-4-morpholinopyrido[3,2-d]pyrimidin-7-yl)phenyl)-2-(dimethylamino)-acetamide]	< 50 nM	–	501 to 5000 nM	100 to 500 nM	< 50 nM	–
Cc1ccc(C(=O)Nc2cccc(-c3cnc4c(N5CCOCC5)nc(-c5cnc(N)nc5)nc4c3)c2)o1 [Example 59, N-(3-(2-(2-amino-pyrimidin-5-yl)-4-morpholinopyrido[3,2-d]pyrimidin-7-yl)phenyl)-5-methylfuran-2-carboxamide]	< 50 nM	100 to 500 nM	< 100 nM	100 to 500 nM	< 50 nM	< 100 nM
CC(O)C(=O)Nc1cccc(-c2cnc3c(N4CCOCC4)nc(-c4cnc(N)nc4)nc3c2)c1 (centres unmarked) [Example 45, N-(3-(2-(2-amino-pyrimidin-5-yl)-4-morpholinopyrido[3,2-d]pyrimidin-7-yl)phenyl)-2-hydroxypropanamide]	< 50 nM	501 to 5000 nM	100 to 500 nM	< 100 nM	< 50 nM	–
CS(=O)(=O)c1cccc(-c2cc3nc(-c4cnc(N)nc4)nc(N4CCOCC4)c3cc2F)c1 [Example 2, 5-(6-Fluoro-7-(3-(methylsulfonyl)phenyl)-4-morpholinoquinazolin-2-yl)pyrimidin-2-amine]	< 50 nM	–	501 to 5000 nM	501 to 5000 nM	50 to 200 nM	–
N#CCC(=O)Nc1cccc(-c2cnc3c(N4CCOCC4)nc(-c4cnc(N)nc4)nc3c2)c1 [Example 53, N-(3-(2-(2-amino-pyrimidin-5-yl)-4-morpholinopyrido[3,2-d]pyrimidin-7-yl)phenyl)-2-cyanoacetamide]	< 50 nM	100 to 500 nM	–	100 to 500 nM	< 50 nM	–
CC(C)CCC(=O)Nc1cccc(-c2cnc3c(N4CCOCC4)nc(-c4cnc(N)nc4)nc3c2)c1 [Example 66, N-(3-(2-(2-amino-pyrimidin-5-yl)-4-morpholinopyrido[3,2-d]pyrimidin-7-yl)phenyl)-4-methylpentanamide]	< 50 nM	501 to 5000 nM	–	100 to 500 nM	< 50 nM	–
CC(=O)Nc1ccc(-c2cnc3c(N4CCOCC4)nc(-c4cnc(N)nc4)nc3c2)cc1 [Example 54, N-(4-(2-(2-amino-pyrimidin-5-yl)-4-morpholinopyrido[3,2-d]pyrimidin-7-yl)-phenyl)acetamide]	< 50 nM	< 100 nM	–	100 to 500 nM	< 50 nM	–
Nc1ncc(-c2nc(N3CCOCC3)c3ncc(-c4cc(NC(=O)C5CC5)ccc4F)cc3n2)cn1 [Example 95, N-(3-(2-(2-amino-pyrimidin-5-yl)-4-morpholinopyrido[3,2-d]-pyrimidin-7-yl)-4-fluorophenyl)cyclopropane-carboxamide]	< 50 nM	–	100 to 500 nM	100 to 500 nM	50 to 200 nM	< 100 nM
Nc1ncc(-c2nc(N3CCOCC3)c3ncc(-c4cccc(NS(=O)(=O)C5CC5)c4)cc3n2)cn1 [Example 81, N-(3-(2-(2-amino-pyrimidin-5-yl)-4-morpholinopyrido[3,2-d]pyrimidin-7-yl)-phenyl)cyclopropane-sulfonamide]	< 50 nM	< 100 nM	–	100 to 500 nM	< 50 nM	–
CCC(=O)Nc1cccc(-c2cnc3c(N4CCOCC4)nc(-c4cnc(N)nc4)nc3c2)c1 [Example 104, N-(3-(2-(2-amino-pyrimidin-5-yl)-4-morpholinopyrido[3,2-d]-pyrimidin-7-yl)-phenyl)propionamide]	< 50 nM	< 100 nM	–	100 to 500 nM	< 50 nM	–
Nc1ncc(-c2nc(N3CCOCC3)c3ncc(-c4cncnc4)cc3n2)cn1 [Example 23, 5-(4-morpholino-7-(pyrimidin-5-yl)-pyrido[3,2-d]pyrimidin-2-yl)pyrimidin-2-amine]	< 50 nM	–	501 to 5000 nM	> 1000 nM	50 to 200 nM	100 to 500 nM
Nc1ncc(-c2nc(N3CCOCC3)c3ncc(-c4cncc(NC(=O)C5CC5)c4)cc3n2)cn1 [Example 31, N-(5-(2-(2-amino-pyrimidin-5-yl)-4-morpholinopyrido[3,2-d]pyrimidin-7-yl)pyridin-3-yl)cyclopropane-carboxamide]	< 50 nM	100 to 500 nM	–	< 100 nM	< 50 nM	–
CS(=O)(=O)c1cccc(-c2cnc3c(N4CCOCC4)nc(-c4cnc(N)nc4)nc3c2)c1 [Example 20, 5-(7-(3-(methyl-sulfonyl)phenyl)-4-morpholinopyrido[3,2-d]-pyrimidin-2-yl)pyrimidin-2-amine]	< 50 nM	–	100 to 500 nM	100 to 500 nM	< 50 nM	–
Nc1ncc(-c2nc(N3CCOCC3)c3ncc(-c4cccc(NC(=O)c5cccnc5)c4)cc3n2)cn1 [Example 58, N-(3-(2-(2-amino-pyrimidin-5-yl)-4-morpholinopyrido[3,2-d]pyrimidin-7-yl)-phenyl)nicotinamide]	< 50 nM	< 100 nM	–	100 to 500 nM	< 50 nM	–
Nc1ncc(-c2nc(N3CCOCC3)c3ncc(-c4cccc(NC(=O)CN5CCC(O)CC5)c4)cc3n2)cn1 [Example 9, N-(3-(2-(2-Aminopyrimidin-5-yl)-4-morpholinopyrido[3,2-d]pyrimidin-7-yl)-phenyl)-2-(4-hydroxypiperidin-1-yl)acetamide]	< 50 nM	< 100 nM	–	100 to 500 nM	< 50 nM	–
CN1CCN(CC(=O)Nc2ccc(F)c(-c3cnc4c(N5CCOCC5)nc(-c5cnc(N)nc5)nc4c3)c2)CC1 [Example 85, N-(3-(2-(2-aminopyrimidin-5-yl)-4-morpholinopyrido[3,2-d]pyrimidin-7-yl)-4-fluorophenyl)-2-(4-methylpiperazin-1-yl)-acetamide]	< 50 nM	100 to 500 nM	–	100 to 500 nM	< 50 nM	–
CC(=O)Nc1cccc(-c2cnc3c(N4CCOCC4)nc(-c4cnc(N)nc4)nc3c2)c1C [Example 56, N-(3-(2-(2-amino-pyrimidin-5-yl)-4-morpholinopyrido[3,2-d]pyrimidin-7-yl)-2-methylphenyl)acetamide]	< 50 nM	100 to 500 nM	–	100 to 500 nM	50 to 200 nM	–
Nc1ncc(-c2nc(N3CCOCC3)c3ncc(-c4cccc(NC(=O)C5CCCC5)c4)cc3n2)cn1 [Example 57, N-(3-(2-(2-amino-pyrimidin-5-yl)-4-morpholinopyrido[3,2-d]pyrimidin-7-yl)-phenyl)cyclopentane-carboxamide]	< 50 nM	100 to 500 nM	–	501 to 5000 nM	< 50 nM	–
CC(C)C(=O)Nc1cccc(-c2cnc3c(N4CCOCC4)nc(-c4cnc(N)nc4)nc3c2)c1 [Example 105, N-(3-(2-(2-amino-pyrimidin-5-yl)-4-morpholinopyrido[3,2-d]-pyrimidin-7-yl)-phenyl)isobutyramide]	< 50 nM	501 to 5000 nM	–	100 to 500 nM	< 50 nM	–
CC(C)(C)C(=O)Nc1cccc(-c2cnc3c(N4CCOCC4)nc(-c4cnc(N)nc4)nc3c2)c1 [Example 118, N-(3-(2-(2-amino-pyrimidin-5-yl)-4-morpholinopyrido[3,2-d]pyrimidin-7-yl)-phenyl)pivalamide]	< 50 nM	–	501 to 5000 nM	501 to 5000 nM	< 50 nM	501 to 5000 nM
